Source: patent publication US11357779B2 (G1 Therapeutics, Inc., priority 2018, dated 2022)
Entries after “also recorded” stand apart in the source; their conditions may differ. Like-named read-outs stand apart in the source and are kept apart here.

Experiments:
[1] = Stability study under thermal stress, 60° C. for 7 days; format: physicochemical
Procedure: Forms A, B, and D were stored in an oven maintained at 60° C. for 7 days.

[2] = test system: HR+, HER2− locally advanced or metastatic breast cancer; experiment: Clinical efficacy of Form B of Compound II plus fulvestrant, RECIST Version 1.1; format: in vivo, human; settings: FIG. 3, FIG. 4; with fulvestrant
Procedure: Target lesions in subjects from Example 1 were evaluated every 8 weeks using the RECIST, Version 1.1 criteria (Eisenhower 2009) as follows: • Complete Response (CR): Disappearance of all target lesions. Any pathological lymph nodes (whether target or nontarget) must have reduction in short axis to <10 mm. • Partial Response (PR): At least a 30% decrease in the sum of diameters of target lesions, taking as reference the baseline sum of diameters. • Progressive Disease (PD): At least a 20% increase in the sum of diameters of target lesions, taking as reference the smallest sum on study (this includes the baseline sum if that is the smallest on study). […] A response category of not evaluable (NE) was used when there was inadequate information to otherwise categorize the response status. • Non-target lesions were evaluated using the following criteria: • Complete Response (CR): Disappearance of all nontarget lesions and normalization of tumor marker level. […]
The overall response (OR) was determined by evaluation of the combination of target and nontarget lesion responses as outlined in Table 94.
The clinical efficacy of the combination of Form B of Compound II and fulvestrant for QD dosing for the subjects from Example 1 was evaluated using the above criteria. […]

[3] = TG and TG-IR analysis of Form B; format: physicochemical
Procedure: The TG analyses were performed using a TA Instrument Q5000 thermogravimetric analyzer. Temperature calibration was performed using nickel and Alumel. The sample was placed in a platinum pan and inserted into the TG furnace. The furnace was heated under a nitrogen purge to 350° C. at a rate of 10° C./min.
Thermogravimetric infrared (TG-IR) analysis was performed on a TA Instruments Q5000 IR thermogravimetric (TG) analyzer interfaced to a Magna-IR 560@ Fourier transform infrared (FT-IR) spectrophotometer (Thermo Nicolet) equipped with an Ever-Glo mid/far IR source, a potassium bromide (KBr) beamsplitter, and a mercury cadmium telluride (MCT-A) detector. The FT-IR wavelength verification was performed using polystyrene, and the TG calibration standards were nickel and Alumel™. The sample was placed in a platinum sample pan and the pan was inserted into the TG furnace. The TG instrument was started first, immediately followed by the FT-IR instrument. The TG instrument was operated under a flow of helium at 90 and 10 cc/minute for the purge and balance, respectively. The furnace was heated under helium at a rate of 20° C./minute to a final temperature of approximately 140° C. IR spectra were collected approximately every 32 seconds for approximately 7.5 minutes. Each IR spectrum represents 32 co-added scans collected at a spectral resolution of 4 cm-1. Volatiles were identified from a search of the High Resolution Nicolet Vapor Phase spectral library.
A TG-IR experiment was carried out on pure Form B (Sample 11 from the small-scale slurry experiments) at […] in an effort to investigate the stability of Form B at elevated temperature by monitoring potential release of hydrogen chloride.

[4] = Crystallization and slurry experiments, morphic forms of Compound II (XRPD, characterization); format: physicochemical; settings: for Time point (1 day) XRPD: Stirring at RT
Procedure: Eleven unique XRPD patterns (Form A-Form K) of Compound II were obtained from crystallization and slurry experiments using various solvents.
Forms A, B, and D were evaluated as solid state forms.

[5] = Steady-state AUC0-24,ss, (AUC0-24,ss)/dose, half-life and time to steady state: Compound I versus palbociclib, ribociclib, abemaciclib; format: in vivo, human; settings: for (Mean AUC0-24,ss)/Dose (mg) / Cmax / AUC(0-t): Day 29; for AUC(0-t): read-out: Mean AUC0-24,ss
Text: The time to reach steady state was defined as five half-lives (97% steady state achieved). […] The AUC data are presented as the arithmetic mean. […] The AUC data are presented as the geometric mean. The steady-state AUC0-24 for various BID doses of abemaciclib provided in Table 89 was obtained from the above cited prior published studies. The AUC data are presented as the geometric mean.

[6] = human, in vivo
Procedure: Absolute neutrophil count (ANC) was determined from the blood sample obtained from subjects described in Example 1 on day 22 using standard methods.
Absolute neutrophil count (ANC) was also determined for blood samples obtained from subjects in all dosing cohorts (200 mg QD, 300 mg QD, 400 mg QD, 500 mg QD, 100 mg BID, and 150 mg BID dosage of Form B of Compound II).

[7] = 200 mg QD of Form B of Compound II, five half-lives
[8] = human, plasma, oral, 200 mg QD of Form B of Compound II
[9] = human, plasma, oral, 300 mg QD of Form B of Compound II
[10] = human, plasma, oral, 400 mg QD of Form B of Compound II
[11] = human, plasma, oral, 500 mg QD of Form B of Compound II
[12] = human, plasma, oral, 650 mg QD of Form B of Compound II

SMILES: CC(C)N1CCN(c2ccc(Nc3ncc4cc5n(c4n3)C3(CCCCC3)CNC5=O)nc2)CC1 [Form B]
- XRPD pattern after thermal stress [1]: stable; also recorded: No change in the XRPD pattern; also recorded: remained unchanged
- anti-tumor activity (waterfall and spider plots, target lesions) [2]: effective anti-tumor activity

SMILES: CC(C)N1CCN(c2ccc(Nc3ncc4cc5n(c4n3)C3(CCCCC3)CNC5=O)nc2)CC1 [Compound II, 2′-((5-(4-isopropylpiperazin-1-yl)pyridin-2-yl)amino)-7′,8′-dihydro-6′H-spiro[cyclohexane-1,9′-pyrazino[1′,2′:1,5]pyrrolo[2,3-d]pyrimidin]-6′-one]
- TGA weight loss ([3]; at 26-120° C., 125 mg/mL Slurry, 30° C., 43 h VF, washed, Air-dried for 3.5 h): 10% weight loss at 26-
- TGA weight loss ([3]; at 26-120° C., Vacuum drying, 22° C., 0.5 h, 15 in Hg, 22° C. 1.5 h, 27-28 in Hg): 9.9% weight loss at 26-
- TGA weight loss ([3]; at 31-120° C., Vacuum drying, 22° C., 2.0 h, 27 in Hg): 7.5% weight loss at 31-
- XRPD ([4]; MeOH/0.5 mL, 60.0° C., Fast Cooling (4° C.), anti solvent EtOAc/0.2 mL, ppt/filter): Weak crystalline
- XRPD ([4]; MeOH/0.5 mL, 60.0° C., Fast Cooling (4° C.), anti solvent n-BuOH/5.0 mL, ppt/filter): Weak crystalline
- XRPD ([4]; MeOH/0.5 mL, 60.0° C., Fast Cooling (4° C.), anti solvent n-PrOH/5.0 mL, ppt/filter): Weak crystalline
- XRPD ([4]; MeOH/0.5 mL, 60.0° C., Slow Cooling (20° C./hr), anti solvent Acetone/0.5 mL, ppt/filter): Weak crystalline
- XRPD ([4]; MeOH/0.5 mL, 60.0° C., Slow Cooling (20° C./hr), anti solvent EtOH/5.0 mL, ppt/filter): Weak crystalline
- XRPD ([4]; MeOH/0.5 mL, 60.0° C., Slow Cooling (20° C./hr), anti solvent MIBK/0.1 mL, ppt/filter (first listing)): Weak crystalline
- XRPD ([4]; MeOH/0.5 mL, 60.0° C., Slow Cooling (20° C./hr), anti solvent MeCN/2.5 mL, ppt/filter): Weak crystalline
- XRPD ([4]; MeOH/0.5 mL, 60.0° C., Slow Cooling (20° C./hr), anti solvent THF/0.5 mL, ppt/filter): Weak crystalline
- XRPD ([4]; MeOH/0.5 mL, 60.0° C., Slow Cooling (20° C./hr), anti solvent Toluene/1.5 mL, ppt/filter (second listing)): Weak crystalline
- XRPD ([4]; MeOH/0.5 mL, 60.0° C., Slow Cooling (20° C./hr), anti solvent n-BuOH/5.0 mL, ppt/filter): Weak crystalline
- XRPD ([4]; MeOH/0.5 mL, 60.0° C., Slow Cooling (20° C./hr), anti solvent n-PrOH/5.0 mL, ppt/filter): Weak crystalline
- XRPD ([4]; Water/0.5 mL, 60.0° C., Fast Cooling (4° C.), anti solvent EtOH/5.0 mL, Clear/Evap.): Weak crystalline
- XRPD ([4]; Water/0.5 mL, 60.0° C., Fast Cooling (4° C.), anti solvent MeCN/5.0 mL, ppt/filter): Weak crystalline
- XRPD ([4]; Water/0.5 mL, 60.0° C., Fast Cooling (4° C.), anti solvent THF/3.0 mL, ppt/filter): Weak crystalline
- XRPD ([4]; Water/0.5 mL, 60.0° C., Fast Cooling (4° C.), anti solvent n-PrOH/5.0 mL, Clear/Evap.): Weak crystalline
- XRPD ([4]; Water/0.5 mL, 60.0° C., Slow Cooling (20° C./hr), anti solvent EtOH/5.0 mL, Clear/Evap.): Weak crystalline
- XRPD ([4]; single solvent crystallization: 1-BuOH 4.0 mL, 60° C., Fast Cooling (4° C.), ppt/filter): Weak
- XRPD ([4]; single solvent crystallization: 1-PrOH 4.0 mL, 60° C., Fast Cooling (4° C.), ppt/filter): Weak
- XRPD ([4]; single solvent crystallization: 1-PrOH 4.0 mL, 60° C., Slow (20° C./hr), ppt/filter): Weak
- XRPD ([4]; single solvent crystallization: MeOH 0.5 mL, 60° C., Fast Cooling (4° C.), ppt/filter): Weak
- XRPD ([4]; single solvent crystallization: Water 2.0 mL, 60° C., Fast Cooling (4° C.), Turbid/Evap.): Weak
- XRPD ([4]; single solvent crystallization: Water 2.0 mL, 60° C., Slow (20° C./hr), Turbid/Evap.): Weak
- Time point (1 day) XRPD ([4]; slurry in 2-MeTHF 1.0 mL): Weak
- Time point (1 day) XRPD ([4]; slurry in IPAc 1.0 mL): A with extra
- Time point (1 day) XRPD ([4]; slurry in MEK 1.0 mL): Weak
- Time point (1 day) XRPD ([4]; slurry in THF 1.0 mL): Weak

SMILES: CC(C)N1CCN(c2ccc(Nc3ncc4cc5n(c4n3)C3(CCCCC3)CNC5=O)nc2)CC1 [Compound I, 2′-((5-(4-isopropylpiperazin-1-yl)pyridin-2-yl)amino)-7′,8′-dihydro-6′H-spiro[cyclohexane-1,9′-pyrazino[1′,2′:1,5]pyrrolo[2,3-d]pyrimidin]-6′-one]
- (Mean AUC0-24,ss)/Dose (mg) ([5]; 200 mg QD of Form B of Compound II): 1.15 ng·h/mL/mg
- Time to Steady State [5, 7]: 3.2 days
- Time to Steady-State [5, 7]: 76 h
- (Mean AUC0-24,ss)/Dose (mg) ([5]; 300 mg QD of Form B of Compound II): 1.97 ng·h/mL/mg
- (Mean AUC0-24,ss)/Dose (mg) ([5]; 400 mg QD of Form B of Compound II): 0.695 ng·h/mL/mg
- (Mean AUC0-24,ss)/Dose (mg) ([5]; 500 mg QD of Form B of Compound II): 1.21 ng·h/mL/mg
- (Mean AUC0-24,ss)/Dose (mg) ([5]; 650 mg QD of Form B of Compound II): 1.47 ng·h/mL/mg
- (AUC0-24,ss)/Dose ([5]; Compound I, Day 29, QD dosing of Form B of Compound II): ≤ 5
- half-life [5, 8]: 15.2 h
- Cmax [5, 8]: 20.4 ng/mL
- AUC(0-t) [5, 8]: 229 ng·h/mL
- Cmax [5, 9]: 47 ng/mL
- AUC(0-t) [5, 9]: 592 ng·h/mL
- Cmax [5, 10]: 19 ng/mL
- AUC(0-t) [5, 10]: 278 ng·h/mL
- Cmax [5, 11]: 43.2 ng/mL
- AUC(0-t) [5, 11]: 607 ng·h/mL
- Cmax [5, 12]: 66 ng/mL
- AUC(0-t) [5, 12]: 956 ng·h/mL
- (AUC0-24,ss)/ANC ([6]; 200 mg): 0.10
- (AUC0-24,ss)/ANC ([6]; 300 mg): 0.47
- (AUC0-24,ss)/ANC ([6]; 400 mg): 0.15
